Tested on: patients with moderate to severe chronic plaque psoriasis
Experiment: PASI response, Phase II 12-week placebo-controlled trial with 48-week extension
Assay type: in vivo, human
Conditions: for PASI 50 / PASI 90 / PASI 100: after 60 weeks of 40 mg eow; for patients with PASI<50 response, qualified for dosage escalation to weekly: on or after Week 24; for Number of Patients Who Qualified for Dosage Escalation: placebo/adalimumab 40 mg eow (n = 18)
Description: Efficacy outcome measures included PASI and PGA.
The two primary clinical outcome measures used in this study were the psoriasis area and severity index (PASI) and the physician's global assessment (PGA). PASI improvement of greater than or equal to 75% (used as an endpoint in psoriasis clinical trials) at week 12 was the primary efficacy outcome measure for this study. PASI is a composite index indicating severity for three main signs of psoriatic plaques (erythema, scaling, and thickness), weighted by the amount of coverage of these plaques in four main body areas, i.e., head, trunk, upper extremities, and lower extremities. PASI scores, which range from 0-72, with higher scores indicating greater severity, were assessed at screening, baseline, week 1, week 2, week 4, week 8, week 12/early termination, and follow-up.
Skin and safety outcomes were assessed up to Week 60.
Analytical methods included the following: • Analyses of clinical data were performed on a modified intention-to-treat population (ITT). […] Patients whose dosages were increased on or after Week 24 were considered non-responders; • Patients with similar percentage PASI improvement across treatment arms were pooled into four strata: PASI<50, PASI 50-74, PASI 75-99, and PASI 100; and • Week-60 distribution of DLQI scores, mean DLQI scores, and mean change in DLQI from Week 0-60 were calculated within each stratum.
Frequently used as an endpoint in psoriasis clinical trials, the PASI [25] was the primary efficacy outcome in this trial. PASI is a composite index indicating the severity of the three main signs of psoriatic plaques (i.e., erythema, scaling, and thickness) and is weighted by the amount of coverage of these plaques in the four main body areas (head, trunk, upper extremities, and lower extremities). PASI scores range from 0-72, with higher scores indicating greater disease severity. PASI was assessed at screening and baseline, at Weeks 1, 2, 4, 8, and 12/Early Termination, and at the final follow-up visit.
At week 12, placebo patients received an 80-mg loading dose, then 40 mg every other week. […] Patients who receive the rescue therapy were considered non-responders in this analysis.

[1] = Week 60, adalimumab 40 mg weekly, modified ITT, NRI
[2] = Week 60, placebo/adalimumab 40 mg eow (adalimumab from Week 12), modified ITT, NRI
[3] = baseline PASI ≧10 and DLQI >10, 40 mg eow, Week 12
[4] = baseline PASI ≧10 and DLQI >10, 40 mg eow, Week 24
[5] = baseline PASI ≧10 and DLQI >10, 40 mg eow, Week 36
[6] = baseline PASI ≧10 and DLQI >10, 40 mg eow, Week 60
[7] = baseline PASI ≧10 and DLQI >10, 40 mg weekly, Week 12
[8] = baseline PASI ≧10 and DLQI >10, 40 mg weekly, Week 24
[9] = baseline PASI ≧10 and DLQI >10, 40 mg weekly, Week 36
[10] = baseline PASI ≧10 and DLQI >10, 40 mg weekly, Week 60
[11] = baseline PASI ≧10 and DLQI >10, placebo/adalimumab 40 mg eow, Week 24
[12] = baseline PASI ≧10 and DLQI >10, placebo/adalimumab 40 mg eow, Week 36
[13] = baseline PASI ≧10 and DLQI >10, placebo/adalimumab 40 mg eow, Week 60
[14] = dosage escalation group (eow to 40 mg weekly, n = 30), Week 60
[15] = placebo/adalimumab 40 mg eow, Week 60, modified ITT, NRI
[16] = weekly group, week 60, observed analysis

For “Adalimumab: a human anti-TNF mAb, described in U.S. Pat. No. 6,090,382 as D2E7 (HUMIRA, Abbott Laboratories)”, the “PASI 50 (% patients)” value [1] was 66%, the “Percentage of patients who achieved PASI 75” value [1] was 64% and the “Percentage of patients who achieved PASI 90” value [1] was 48%. For the same substance, the “Percentage of patients who achieved PASI 100” value (Week 60, placebo/adalimumab 40 mg eow (adalimumab from Week 12), NRI) was 19%, the “PASI 50 (% patients)” value [2] was 64% and the “Percentage of patients who achieved PASI 75” value [2] was 45%. For the same substance, the “Percentage of patients who achieved PASI 90” value [2] was 40%, the “PASI 75 response rate” value [3] was 69 % of Patients and the “PASI 90 response rate” value [3] was 39 % of Patients. The “PASI 75 response rate” value [4] was 77 % of Patients, the “PASI 90 response rate” value [4] was 54 % of Patients and the “PASI 75 response rate” value [5] was 73 % of Patients. For the same substance, the “PASI 90 response rate” value [5] was 58 % of Patients, the “PASI 75 response rate” value [6] was 65 % of Patients and the “PASI 90 response rate” value [6] was 42 % of Patients. For the same substance, the “PASI 75 response rate” value [7] was 74 % of Patients, the “PASI 90 response rate” value [7] was 61 % of Patients and the “PASI 75 response rate” value [8] was 78 % of Patients. The “PASI 90 response rate” value [8] was 70 % of Patients, the “PASI 75 response rate” value [9] was 74 % of Patients and the “PASI 90 response rate” value [9] was 65 % of Patients. For the same substance, the “PASI 75 response rate” value [10] was 65 % of Patients, the “PASI 90 response rate” value [10] was 48 % of Patients and the “PASI 75 response rate” value [11] was 50 % of Patients. The “PASI 90 response rate” value [11] was 28 % of Patients, the “PASI 75 response rate” value [12] was 50 % of Patients and the “PASI 90 response rate” value [12] was 50 % of Patients. The “PASI 75 response rate” value [13] was 44 % of Patients, the “PASI 90 response rate” value [13] was 39 % of Patients and the “PASI 50 response rate” value [14] was 40%. For the same substance, the “PASI 75 response rate” value [14] was ~20%, the “PASI 90 response rate” value [14] was 0% and the “PASI 75 response rate” value (dosage escalation group (eow to 40 mg weekly, n = 30), Week 60, listed as adalimumab) was 17%. The “PASI 50 response” value (eow arm, Week 24) was 73, the “PASI 75 response rate” value (no prior use, 40 mg eow, Week 24) was 65 % Patients and the “PASI 75 response rate” value (no prior use, 40 mg eow, Week 60) was 48 % Patients. The “PASI 75 response rate” value (no prior use, 40 mg weekly, Week 24) was 76 % Patients, the “PASI 75 response rate” value (no prior use, 40 mg weekly, Week 60) was 64 % Patients and the “PASI 50” value (no prior use) was 65%. The “PASI 90” value (no prior use) was 30%, the “PASI 100” value (no prior use) was 17% and the “PASI 75 response rate” value (no prior use, placebo/adalimumab 40 mg eow, Week 24) was 56 % Patients. For the same substance, the “PASI 75 response rate” value (no prior use, placebo/adalimumab 40 mg eow, Week 60) was 40 % Patients, the “patients with PASI<50 response, qualified for dosage escalation to weekly” value (of the 45 patients in adalimumab eow group) was 12 patients and the “patients with PASI<50 response, qualified for dosage escalation to weekly” value (of the 47 patients in placebo/adalimumab eow group) was 18 patients. For the same substance, the “patients with PASI≧75 after dose escalation” value (original adalimumab 40 mg every other week arm (two out of nine), week 60) was 22%, the “patients with PASI≧75 after dose escalation” value (original placebo/adalimumab 40 mg every other week arm (two out of thirteen), week 60) was 15% and the “Number of Patients Who Qualified for Dosage Escalation” value (from here on “Number of Patients Who Qualified”) (Week 24) was 10. For the same substance, the “Number of Patients Who Qualified” value (Week 28) was 2, the “Number of Patients Who Qualified” value (Week 32) was 2 and the “Number of Patients Who Qualified” value (Week 44) was 1. For the same substance, the “Number of Patients Who Qualified” value (Week 52) was 3, the “Number of Patients Who Qualified” value (Week 60) was 0 and the “Overall PASI 75 response rate” value (placebo/adalimumab 40 mg eow, Week 24, modified ITT, NRI) was 55 % of Patients. The “Overall PASI 75 response rate” value (placebo/adalimumab 40 mg eow, Week 36, modified ITT, NRI) was 62 % of Patients, the “Overall PASI 75 response rate” value [15] was 45 % of Patients and the “PASI 50 response rate” value [15] was 57 % Patients. The “PASI 90 response rate” value [15] was 40 % Patients, the “PASI 100 response rate” value [15] was 19 % Patients and the “PASI 50 response” value (placebo/eow arm, Week 24) was 77. For the same substance, the “PASI 50” value (prior biologic use) was 63%, the “PASI 90” value (prior biologic use) was 38% and the “PASI 100” value (prior biologic use) was 13%. The “PASI 75 response rate” value (prior biological use, 40 mg eow, Week 24) was 50 % Patients, the “PASI 75 response rate” value (prior biological use, 40 mg eow, Week 60) was 63 % Patients and the “PASI 75 response rate” value (prior biological use, 40 mg weekly, Week 24) was 67 % Patients. The “PASI 75 response rate” value (prior biological use, 40 mg weekly, Week 60) was 78 % Patients, the “PASI 75 response rate” value (prior biological use, placebo/adalimumab 40 mg eow, Week 24) was 63 % Patients and the “PASI 75 response rate” value (prior biological use, placebo/adalimumab 40 mg eow, Week 60) was 63 % Patients. For the same substance, the “PASI 75 response rate” value (prior systemic use, 40 mg eow, Week 24) was 68 % Patients, the “PASI 75 response rate” value (prior systemic use, 40 mg eow, Week 60) was 68 % Patients and the “PASI 75 response rate” value (prior systemic use, 40 mg weekly, Week 24) was 73 % Patients. The “PASI 75 response rate” value (prior systemic use, 40 mg weekly, Week 60) was 64 % Patients, the “PASI 50” value (prior systemic use) was 68% and the “PASI 90” value (prior systemic use) was 37%. The “PASI 100” value (prior systemic use) was 11%, the “PASI 75 response rate” value (prior systemic use, placebo/adalimumab 40 mg eow, Week 24) was 47 % Patients and the “PASI 75 response rate” value (prior systemic use, placebo/adalimumab 40 mg eow, Week 60) was 41 % Patients. For the same substance, the “PASI 50 response” value (weekly arm, Week 24) was 80, the “PASI 75-99 response rate” value [16] was 38 and the “PASI 100 response rate” value [16] was 26.
